Source: patent US7803801B2, “Aminopyridine compounds having Syk inhibitory activity” (Japan Tobacco, Inc., priority 2005, dated 2010)
Where a name gives a salt, the structure may show the parent alone. Read-outs that look alike come from different tables or passages of the source.

Columns and labels:
[1] = target: GST-Syk Full Protein (human) (Homo sapiens, UniProt P43405); assay: Syk kinase inhibition test (HTRF method); format: biochemical
In short: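 Human GST-Syk full-length (6.4 nM) phosphorylated biotin-EDPDYEWPSA-NH2 (250 nM) with 100 μM ATP in HEPES pH 7.0/MgCl2 buffer, 2% DMSO, 30 min at room temperature. EDTA stop, then HTRF detection (streptavidin-XL665, Eu anti-phosphotyrosine) after 1 h; 665/620 ratio read.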

[2] = tested on: cultured human mast cells; assay: Degranulation inhibition test using cultured human mast cells (IgE cross-linking, β-Hexosaminidase release); format: cell-based; settings: Mast cell, cultured human mast cells, read-out: human degranulation ave. IC50
Protocol: Degranulation Inhibition Test Using Cultured Human Mast Cells
(1) Separation of Hematopoietic Stem Cells;
After 10 to 60 mL of umbilical cord blood collected with heparin was diluted with an equivalent amount of buffer (0.5% BSA, 2 mM EDTA/PBS-), it was superposed on Ficoll-Paque (Amersham Pharmacia Biotech) (Ficoll/Blood (1:2)) and mononuclear leukocyte fraction was collected by centrifuging it at 400 G (1350 rpm) 4° C. for 30 minutes. After centrifugal washing (1500 rpm, 5 min, 4° C.×3) with buffer, the number of cells was counted and 0.1 mL of CD34 Progenitor Cell Isolation Kit (Miltenyi Biotec), Reagent A1 (Fc blocking) was added for 1×10^8 cells. After agitation, 0.1 mL of Reagent A2 (CD34 antibody-hapten) was added (final volume 0.5 mL/1×10^8 cells) and incubated at 9° C. for further 15 minutes after agitation. After centrifugal washing (1500 rpm, 5 min, 4° C.×3), it was resuspeded in a buffer (0.4 mL) and 0.1 mL of Reagent B (anti hapten antibody-microbeads) was added and agitated (final volume 0.5 mL/1×10^8 cells) and incubated at 9° C. for further 15 minutes. After centrifugal washing (1500 rpm, 5 min, 4° C.×2), it was resuspeded in a buffer (0.5 mL) and loaded on CS column (Miltenyi Biotec) set in MACS (MAgnetic Cell Sorting system; Miltenyi Biotec, Daiichi Pure Chemicals) and washed with 30 mL of buffer to remove CD34^− cells. The column was separated from MACS and eluted with 30 mL of buffer and CD34^+ cells bound to the column were collected and used as a hematopoietic stem cell population.
(2) Acquisition of Human Mast Cells by Long-Term Culturing of Hematopoietic Stem Cells;
The CD34^+ cells separated in (1) were resuspended in Iscove's Modified Dulbecco's Medium (IMDM, Gibco) containing human (rh)SCF (1 μg/mL, Peprotech), rhIL-6 (0.5 μg/mL, Peprotech), rhIL-3 (10 ng/mL, Peprotech), 1% Insulin-Transferrin (Gibco), 5×10^−5M 2-ME (Gibco), 0.1% BSA (Sigma) in a density of 1×10^6 cells/ml and disseminated on 24-well culture plate with a dose of 0.1 mL/well and 0.9 ml of IMDM (Methocult SF^BIT StemCell technology) containing 0.9% methyl cellulose was added and culturing was started. The above culture medium (excluding methyl cellulose) was added in a week and after that 100 μL/well of the above culture medium (further excluding IL-3) was added at an interval of every once a week so that cells were diluted to maintain 10^5 cells/mL/well order and cultured more than about 8 weeks and thereby human culture mast cells were obtained.
(3) Expression Enhancement of FcεRI and Inhibition Test IgE Cross-Linking Stimulating Degranulation;
rhIL-4 (final concentration 1 ng/mL, R & D) and Homo sapiens(h) IgE (final concentration 0.5 μg/mL, CHEMICON) were added to the obtained human culture mast cells, and they were incubated for 5 days to enhance the expression of FcεRI. After incubation, cells were collected and, after centrifugal washing (IMDM), they were disseminated on 96-well culture plate in 5×10^4 cells/80 μL/well.
10 μL of a compound 10-fold diluted with IMDM after dissolved in DMSO (DMSO final concentration 0.1%) was added and reacted at 37° C. for 10 minutes. Further, 10 μL of anti-hIgE Ab (CHEMICON) adjusted to 100 μg/mL (final concentration 10 μg/mL) was added and degranulation was caused by being stimulated at 37° C. for 30 minutes. After centrifugation, 50 μL/well of the supernatant was collected and stored at −40° C. untill the quantity of degranulation was measured. The measurement of quantity of degranulation was performed using enzymatic activity of β-Hexosaminidase contained in the granulates as an index. That is, an equivalent amount of p-nitrophenyl-N-acetyl-β-D-glucosaminide (1 mM) (containing 0.1% Triton X-100) which is a substrate of β-Hexosaminidase was added to 50 μL of the culture filtrate, and after reacted at 37° C. for 2 hours, the reaction was terminated by using 100 μL of Carbonate buffer (0.1M, pH 10). […]

[3] = HTRF, 100 μM ATP, 30 min room temperature, average, read-out: sykHTRF ave IC50
[4] = anti-hIgE stimulation, β-Hexosaminidase index, average
[5] = Tables 1-x, compounds A, read-out: sykHTRF ave IC50
[6] = Tables 2-x, thiophene compounds B, read-out: sykHTRK ave IC50
[7] = Tables 2-x, thiophene compounds B

IC50 [1, 3] [nM]	IC50 [2, 4] [nM]	IC50 [1, 5] [nM]	IC50 ([2]; Tables 1-x, compounds A) [nM]	Compound	also measured
< 100	100 to 1000			C/C(=N\OCCO)c1ncc(-c2cccc(Nc3cc(C)ccn3)n2)s1 [Compound A-35, 1-{5-[6-(4-methylpyridin-2-ylamino)pyridin-2-yl]thiazol-2-yl}ethanone 0-(2-hydroxyethyl)oxime]	
100 to 1000	> 1000			CC(=O)N[C@@H](Cc1ccc(OCCO)cc1)c1ncc(-c2cccc(Nc3cc(C)ccn3)n2)s1 [Compound A-140]	
		< 100	100 to 1000	O=C(NO)[C@@H]1CCCN(c2ncc(-c3cccc(Nc4cc(Cl)ccn4)n3)s2)C1 [Compound A-552, N-hydroxy-(R)-1-{5-[6-(4-chloropyridin-2-ylamino)pyridin-2-yl]thiazol-2-yl}piperidine-3-carboxamide]	
100 to 1000	> 1000			CC(=O)N[C@H](c1ccc(OCc2ccccc2)cc1)c1ncc(-c2cccc(Nc3cc(C)ccn3)n2)s1 [Compound A-160]	
		< 100	> 1000	Cc1ccnc(Nc2cccc(-c3cnc(N(C)Cc4nc(C(=O)O)cs4)s3)n2)c1 [Compound A-609, 2-[(N-methyl-N-{5-[6-(4-methylpyridin-2-ylamino)pyridin-2-yl]thiazol-2-yl}amino)methyl]thiazole-4-carboxylic acid]	
100 to 1000	100 to 1000			COc1ccnc(Nc2cccc(-c3cnc([C@H](C)NC(C)=O)s3)n2)c1 [Compound A-77]	
				Cc1ccnc(Nc2cccc(-c3ccc(NC(=O)OC(C)(C)C)s3)n2)c1 [Compound B-34]	IC50 [1, 6]: 100 to 1000 nM; IC50 [2, 7]: > 1000 nM
100 to 1000	100 to 1000			Cc1ccnc(Nc2cccc(-c3cnc(CCc4ccc(C(=O)N5CCC(O)CC5)cc4)s3)n2)c1 [Compound A-233]	
		100 to 1000	> 1000	Cc1ccnc(Nc2cccc(-c3cnc(N(CC(=O)N(C)C)[C@H]4CC[C@H](C(=O)O)CC4)s3)n2)c1 [Compound A-602]	
100 to 1000	> 1000			Cc1ccnc(Nc2cccc(-c3cnc([C@@H](N)Cc4ccc(OCc5ccccc5)cc4)s3)n2)c1 [Compound A-86]	
				Cc1ccnc(Nc2cccc(-c3ccc(CC(C)O)s3)n2)c1 (stereo not shown) [Compound B-71]	IC50 [1, 6]: 100 to 1000 nM; IC50 [2, 7]: 100 to 1000 nM
		< 100	> 1000	CC(=O)N1CCC(N(c2ncc(-c3cccc(Nc4cc(C)ccn4)n3)s2)C(C)C)CC1 [Compound A-515, 1-[4-(N-isopropyl-N-{5-[6-(4-methylpyridin-2-ylamino)pyridin-2-yl]thiazol-2-yl}amino)piperidin-1-yl]ethanone]	
		< 100	100 to 1000	Cc1ccnc(Nc2cccc(-c3cnc(N(C)Cc4ccc(C(=O)O)cc4)s3)n2)c1 [Compound A-574, 4-[(N-methyl-N-{5-[6-(4-methylpyridin-2-ylamino)pyridin-2-yl]thiazol-2-yl}amino)methyl]benzoic acid dihydrochloride]	
< 100	100 to 1000			Cc1ccnc(Nc2cccc(-c3cnc([C@H]4CC[C@@H](C#N)CC4)s3)n2)c1 [Compound A-317, cis-4-{5-[6-(4-methylpyridin-2-ylamino)pyridin-2-yl]thiazol-2-yl}cyclohexanecarbonitrile]	
		< 100	100 to 1000	Cc1ccnc(Nc2cccc(-c3cnc(N4CCC(CC(N)=O)CC4)s3)n2)c1 [Compound A-504, 2-(1-{5-[6-(4-methylpyridin-2-ylamino)pyridin-2-yl]thiazol-2-yl}piperidin-4-yl)acetamide]	
		< 100	100 to 1000	Cc1ccnc(Nc2cccc(-c3cnc(CN4CC(=O)NC(=O)C4)s3)n2)c1 [Compound A-383, 4-{5-[6-(4-methylpyridin-2-ylamino)pyridin-2-yl]thiazol-2-ylmethyl}piperazine-2,6-dione]	
100 to 1000	> 1000			Cc1ccnc(Nc2cccc(-c3cnc(CCCC(=O)O)s3)n2)c1 [Compound A-131]	
		100 to 1000	100 to 1000	Cc1ccnc(Nc2cccc(-c3cnc(C4CCN(C(=O)CS(C)(=O)=O)CC4)s3)n2)c1 [Compound A-397]	
	100 to 1000			CC(=O)Nc1ncc(-c2cccc(Nc3cc(C)ccn3)n2)s1 [Compound A-23]	
